Test results as given in patent publication US20230017045A1, “PYRIDINE AND PYRIMIDINE CARBOXYLATE HERBICIDES AND METHODS OF USE THEREOF” (Dow AgroSciences LLC, priority 2017, published 2023).

These compounds were tested on test plant species (assay: Post-emergent herbicidal activity test (greenhouse, foliar spray, visual growth reduction)). Conditions: ALOMY: blackgrass (Alopecurus myosuroides), 140 g ai/ha, 14 days after application.
Format: in vivo
Procedure, shortened: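 Plants grown in greenhouse (15 h photoperiod, 23-29° C day/22-28° C night) to first or second true leaf stage were sprayed overhead with compound in acetone/water/isopropanol/DMSO/crop oil/X-77 carrier at 187 L/ha. Injury was scored visually after 14 d on a 0-100% scale versus solvent-blank and untreated controls.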
With `COC(=O)c1nc(-c2ccc([N+](=O)[O-])cc2)c(F)cc1Cl` [F197, Methyl 3-chloro-5-fluoro-6-(4-nitrophenyl) picolinate] the “Visual Growth Reduction (%) 14 Days After Application, ALOMY” value was “G (0-29)”.

Same assay, conditions: AMARE: redroot pigweed (Amaranthus retroflexus), 140 g ai/ha, 14 days after application
In the case of `COC(=O)c1nc(-c2ccc([N+](=O)[O-])cc2)c(F)cc1Cl` [F197, Methyl 3-chloro-5-fluoro-6-(4-nitrophenyl) picolinate], the “Visual Growth Reduction (%) 14 Days After Application, AMARE” value is reported as “G (0-29)”.

Same assay, conditions: AVEFA: wild oat (Avena fatua), 140 g ai/ha, 14 days after application
With `COC(=O)c1nc(-c2ccc([N+](=O)[O-])cc2)c(F)cc1Cl` [F197, Methyl 3-chloro-5-fluoro-6-(4-nitrophenyl) picolinate] the “Visual Growth Reduction (%) 14 Days After Application, AVEFA” value was “G (0-29)”.

Same assay, conditions: CHEAL: lambsquarters (Chenopodium album), 140 g ai/ha, 14 days after application
For `COC(=O)c1nc(-c2ccc([N+](=O)[O-])cc2)c(F)cc1Cl` [F197, Methyl 3-chloro-5-fluoro-6-(4-nitrophenyl) picolinate], the “Visual Growth Reduction (%) 14 Days After Application, CHEAL” value was “E (45-59)”.

Same assay, conditions: CIRAR: canada thistle (Cirsium arvense), 140 g ai/ha, 14 days after application
For `COC(=O)c1nc(-c2ccc([N+](=O)[O-])cc2)c(F)cc1Cl` [F197, Methyl 3-chloro-5-fluoro-6-(4-nitrophenyl) picolinate], the “Visual Growth Reduction (%) 14 Days After Application, CIRAR” value was “G (0-29)”.

Same assay, conditions: CYPES: yellow nutsedge (Cyperus esculentus), 140 g ai/ha, 14 days after application
With `COC(=O)c1nc(-c2ccc([N+](=O)[O-])cc2)c(F)cc1Cl` [F197, Methyl 3-chloro-5-fluoro-6-(4-nitrophenyl) picolinate] the “Visual Growth Reduction (%) 14 Days After Application, CYPES” value was “G (0-29)”.

Same assay, conditions: DIGSA: crabgrass (Digitaria sanguinalis), 140 g ai/ha, 14 days after application
`COC(=O)c1nc(-c2ccc([N+](=O)[O-])cc2)c(F)cc1Cl` [F197, Methyl 3-chloro-5-fluoro-6-(4-nitrophenyl) picolinate] was tested, and the “Visual Growth Reduction (%) 14 Days After Application, DIGSA” value was “F (30-44)”.

Same assay, conditions: ECHCG: barnyardgrass (Echinochloa crus-galli), 140 g ai/ha, 14 days after application
With `COC(=O)c1nc(-c2ccc([N+](=O)[O-])cc2)c(F)cc1Cl` [F197, Methyl 3-chloro-5-fluoro-6-(4-nitrophenyl) picolinate] the “Visual Growth Reduction (%) 14 Days After Application, ECHCG” value was “G (0-29)”.

Same assay, conditions: IPOHE: ivy-leaf morning glory (Ipomoea hederacea), 140 g ai/ha, 14 days after application
In the case of `COC(=O)c1nc(-c2ccc([N+](=O)[O-])cc2)c(F)cc1Cl` [F197, Methyl 3-chloro-5-fluoro-6-(4-nitrophenyl) picolinate], the “Visual Growth Reduction (%) 14 Days After Application, IPOHE” value is reported as “D (60-74)”.

Same assay, conditions: KCHSC: kochia (Bassia scoparia), 140 g ai/ha, 14 days after application
`COC(=O)c1nc(-c2ccc([N+](=O)[O-])cc2)c(F)cc1Cl` [F197, Methyl 3-chloro-5-fluoro-6-(4-nitrophenyl) picolinate] was tested, and the “Visual Growth Reduction (%) 14 Days After Application, KCHSC” value was “G (0-29)”.

Same assay, conditions: ORYSA: rice (Oryza sativa), 140 g ai/ha, 14 days after application
With `COC(=O)c1nc(-c2ccc([N+](=O)[O-])cc2)c(F)cc1Cl` [F197, Methyl 3-chloro-5-fluoro-6-(4-nitrophenyl) picolinate] the “Visual Growth Reduction (%) 14 Days After Application, ORYSA” value was “G (0-29)”.

Same assay, conditions: SETFA: giant foxtail (Setaria faberi), 140 g ai/ha, 14 days after application
With `COC(=O)c1nc(-c2ccc([N+](=O)[O-])cc2)c(F)cc1Cl` [F197, Methyl 3-chloro-5-fluoro-6-(4-nitrophenyl) picolinate] the “Visual Growth Reduction (%) 14 Days After Application, SETFA” value was “G (0-29)”.

Same assay, conditions: SORVU: johnsongrass (Sorghum vulgare), 140 g ai/ha, 14 days after application
In the case of `COC(=O)c1nc(-c2ccc([N+](=O)[O-])cc2)c(F)cc1Cl` [F197, Methyl 3-chloro-5-fluoro-6-(4-nitrophenyl) picolinate], the “Visual Growth Reduction (%) 14 Days After Application, SORVU” value is reported as “F (30-44)”.

Same assay, conditions: STEME: common chickweed (Stellaria media), 140 g ai/ha, 14 days after application
With `COC(=O)c1nc(-c2ccc([N+](=O)[O-])cc2)c(F)cc1Cl` [F197, Methyl 3-chloro-5-fluoro-6-(4-nitrophenyl) picolinate] the “Visual Growth Reduction (%) 14 Days After Application, STEME” value was “G (0-29)”.

Same assay, conditions: TRZAS: wheat, spring (Triticum aestivum), 140 g ai/ha, 14 days after application
With `COC(=O)c1nc(-c2ccc([N+](=O)[O-])cc2)c(F)cc1Cl` [F197, Methyl 3-chloro-5-fluoro-6-(4-nitrophenyl) picolinate] the “Visual Growth Reduction (%) 14 Days After Application, TRZAS” value was “G (0-29)”.

Same assay, conditions: post-emergence, 336 h, ALOMY: blackgrass (Alopecurus myosuroides), 140 g ai/ha, 14 days after application, read-out: Visual Growth Reduction (%) 14 Days After Application, ALOMY
Work on `O=C(O)c1nc(-c2ccc(C(F)(F)F)nc2Cl)ccc1Cl` [F192, 2′,5-Dichloro-6′-(trifluoromethyl)-[2,3′-bipyridine]-6-carboxylic acid] yielded a pest or weed control at 140 g/ha of 0 to 29%.

Same assay, conditions: post-emergence, 336 h, AMARE: redroot pigweed (Amaranthus retroflexus), 140 g ai/ha, 14 days after application, read-out: Visual Growth Reduction (%) 14 Days After Application, AMARE
In the case of `O=C(O)c1nc(-c2ccc(C(F)(F)F)nc2Cl)ccc1Cl` [F192, 2′,5-Dichloro-6′-(trifluoromethyl)-[2,3′-bipyridine]-6-carboxylic acid], the pest or weed control at 140 g/ha is reported as 85 to 94%.

Same assay, conditions: post-emergence, 336 h, AVEFA: wild oat (Avena fatua), 140 g ai/ha, 14 days after application, read-out: Visual Growth Reduction (%) 14 Days After Application, AVEFA
`O=C(O)c1nc(-c2ccc(C(F)(F)F)nc2Cl)ccc1Cl` [F192, 2′,5-Dichloro-6′-(trifluoromethyl)-[2,3′-bipyridine]-6-carboxylic acid] gave a pest or weed control at 140 g/ha of 0 to 29%.

Same assay, conditions: post-emergence, 336 h, CHEAL: lambsquarters (Chenopodium album), 140 g ai/ha, 14 days after application, read-out: Visual Growth Reduction (%) 14 Days After Application, CHEAL
Compound `O=C(O)c1nc(-c2ccc(C(F)(F)F)nc2Cl)ccc1Cl` [F192, 2′,5-Dichloro-6′-(trifluoromethyl)-[2,3′-bipyridine]-6-carboxylic acid] has a pest or weed control at 140 g/ha of 95 to 100%.

Same assay, conditions: post-emergence, 336 h, CIRAR: canada thistle (Cirsium arvense), 140 g ai/ha, 14 days after application, read-out: Visual Growth Reduction (%) 14 Days After Application, CIRAR
`O=C(O)c1nc(-c2ccc(C(F)(F)F)nc2Cl)ccc1Cl` [F192, 2′,5-Dichloro-6′-(trifluoromethyl)-[2,3′-bipyridine]-6-carboxylic acid] gave a pest or weed control at 140 g/ha of 75 to 84%.

Same assay, conditions: post-emergence, 336 h, CYPES: yellow nutsedge (Cyperus esculentus), 140 g ai/ha, 14 days after application, read-out: Visual Growth Reduction (%) 14 Days After Application, CYPES
For `O=C(O)c1nc(-c2ccc(C(F)(F)F)nc2Cl)ccc1Cl` [F192, 2′,5-Dichloro-6′-(trifluoromethyl)-[2,3′-bipyridine]-6-carboxylic acid], the pest or weed control at 140 g/ha was 0 to 29%.

Same assay, conditions: post-emergence, 336 h, DIGSA: crabgrass (Digitaria sanguinalis), 140 g ai/ha, 14 days after application, read-out: Visual Growth Reduction (%) 14 Days After Application, DIGSA
Work on `O=C(O)c1nc(-c2ccc(C(F)(F)F)nc2Cl)ccc1Cl` [F192, 2′,5-Dichloro-6′-(trifluoromethyl)-[2,3′-bipyridine]-6-carboxylic acid] yielded a pest or weed control at 140 g/ha of 85 to 94%.

Same assay, conditions: post-emergence, 336 h, ECHCG: barnyardgrass (Echinochloa crus-galli), 140 g ai/ha, 14 days after application, read-out: Visual Growth Reduction (%) 14 Days After Application, ECHCG
`O=C(O)c1nc(-c2ccc(C(F)(F)F)nc2Cl)ccc1Cl` [F192, 2′,5-Dichloro-6′-(trifluoromethyl)-[2,3′-bipyridine]-6-carboxylic acid] was tested, and the pest or weed control at 140 g/ha was 75 to 84%.

Same assay, conditions: post-emergence, 336 h, IPOHE: ivy-leaf morning glory (Ipomoea hederacea), 140 g ai/ha, 14 days after application, read-out: Visual Growth Reduction (%) 14 Days After Application, IPOHE
Compound `O=C(O)c1nc(-c2ccc(C(F)(F)F)nc2Cl)ccc1Cl` [F192, 2′,5-Dichloro-6′-(trifluoromethyl)-[2,3′-bipyridine]-6-carboxylic acid] has a pest or weed control at 140 g/ha of 95 to 100%.

Same assay, conditions: post-emergence, 336 h, KCHSC: kochia (Bassia scoparia), 140 g ai/ha, 14 days after application, read-out: Visual Growth Reduction (%) 14 Days After Application, KCHSC
For `O=C(O)c1nc(-c2ccc(C(F)(F)F)nc2Cl)ccc1Cl` [F192, 2′,5-Dichloro-6′-(trifluoromethyl)-[2,3′-bipyridine]-6-carboxylic acid], the pest or weed control at 140 g/ha was 60 to 74%.

Same assay, conditions: post-emergence, 336 h, ORYSA: rice (Oryza sativa), 140 g ai/ha, 14 days after application, read-out: Visual Growth Reduction (%) 14 Days After Application, ORYSA
Compound `O=C(O)c1nc(-c2ccc(C(F)(F)F)nc2Cl)ccc1Cl` [F192, 2′,5-Dichloro-6′-(trifluoromethyl)-[2,3′-bipyridine]-6-carboxylic acid] has a pest or weed control at 140 g/ha of 0 to 29%.

Same assay, conditions: post-emergence, 336 h, SETFA: giant foxtail (Setaria faberi), 140 g ai/ha, 14 days after application, read-out: Visual Growth Reduction (%) 14 Days After Application, SETFA
In the case of `O=C(O)c1nc(-c2ccc(C(F)(F)F)nc2Cl)ccc1Cl` [F192, 2′,5-Dichloro-6′-(trifluoromethyl)-[2,3′-bipyridine]-6-carboxylic acid], the pest or weed control at 140 g/ha is reported as 75 to 84%.

Same assay, conditions: post-emergence, 336 h, SORVU: grain sorghum (Sorghum vulgare), 140 g ai/ha, 14 days after application, read-out: Visual Growth Reduction (%) 14 Days After Application, SORVU
With `O=C(O)c1nc(-c2ccc(C(F)(F)F)nc2Cl)ccc1Cl` [F192, 2′,5-Dichloro-6′-(trifluoromethyl)-[2,3′-bipyridine]-6-carboxylic acid] the pest or weed control at 140 g/ha was 85 to 94%.

Same assay, conditions: post-emergence, 336 h, STEME: common chickweed (Stellaria media), 140 g ai/ha, 14 days after application, read-out: Visual Growth Reduction (%) 14 Days After Application, STEME
Compound `O=C(O)c1nc(-c2ccc(C(F)(F)F)nc2Cl)ccc1Cl` [F192, 2′,5-Dichloro-6′-(trifluoromethyl)-[2,3′-bipyridine]-6-carboxylic acid] has a pest or weed control at 140 g/ha of 0 to 29%.

Same assay, conditions: post-emergence, 336 h, TRZAS: wheat, spring (Triticum aestivum), 140 g ai/ha, 14 days after application, read-out: Visual Growth Reduction (%) 14 Days After Application, TRZAS
In the case of `O=C(O)c1nc(-c2ccc(C(F)(F)F)nc2Cl)ccc1Cl` [F192, 2′,5-Dichloro-6′-(trifluoromethyl)-[2,3′-bipyridine]-6-carboxylic acid], the pest or weed control at 140 g/ha is reported as 0 to 29%.
